The target in one assay is T1, Pol theta (1-899) (Homo sapiens, UniProt O75417).
T1 construct: Pol theta (1-899) (5 nM) in assay buffer
T1 sequence (O75417 1-899): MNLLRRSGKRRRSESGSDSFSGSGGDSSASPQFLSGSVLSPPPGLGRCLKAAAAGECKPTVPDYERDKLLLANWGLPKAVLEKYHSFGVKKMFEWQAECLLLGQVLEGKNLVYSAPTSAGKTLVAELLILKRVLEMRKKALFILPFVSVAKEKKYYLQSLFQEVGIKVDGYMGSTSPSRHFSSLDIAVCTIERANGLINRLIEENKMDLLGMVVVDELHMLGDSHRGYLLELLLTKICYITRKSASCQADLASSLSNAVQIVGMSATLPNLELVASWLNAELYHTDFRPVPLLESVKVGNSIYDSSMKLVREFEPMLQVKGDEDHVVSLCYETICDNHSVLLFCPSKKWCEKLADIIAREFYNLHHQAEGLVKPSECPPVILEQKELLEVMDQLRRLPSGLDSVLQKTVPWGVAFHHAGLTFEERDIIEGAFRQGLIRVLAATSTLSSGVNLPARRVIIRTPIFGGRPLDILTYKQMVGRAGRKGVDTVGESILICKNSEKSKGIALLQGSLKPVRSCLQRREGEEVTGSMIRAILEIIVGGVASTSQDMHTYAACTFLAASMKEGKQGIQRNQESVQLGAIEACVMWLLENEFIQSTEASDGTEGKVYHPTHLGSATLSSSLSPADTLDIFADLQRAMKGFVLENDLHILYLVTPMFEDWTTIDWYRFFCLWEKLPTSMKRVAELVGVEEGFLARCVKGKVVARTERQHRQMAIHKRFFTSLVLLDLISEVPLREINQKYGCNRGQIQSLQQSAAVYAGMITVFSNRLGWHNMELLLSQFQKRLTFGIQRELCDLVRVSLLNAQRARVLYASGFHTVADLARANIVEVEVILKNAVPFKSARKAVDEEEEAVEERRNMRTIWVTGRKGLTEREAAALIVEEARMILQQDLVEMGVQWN
Nature of the assay: Pol theta ATPase activity, NADH oxidation-coupled enzymatic assay (ATPase NADH coupling: Standard Screening: hPolQ). In kind it is biochemical. The note with it: Pol theta (1-899) 5 nM, NADH oxidation-coupled ATPase assay; compounds of Table 3. The essentials: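 Rates of ATP hydrolysis taken from 60-min A340 traces of NADH oxidation via PK/LDH coupling, then fit four-parameter for IC50, Hill slope and max inhibition. Enzyme (5 nM, 1-899) and compounds preincubated 15 min before ATP 100 μM and 50-thymine ssDNA 300 nM (stock, equal volume added).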
The term IC50 denotes the concentration that inhibits the measured activity by half. A lower IC50 goes with higher potency. Consider `COc1nnc(NC(=O)c2cnc(C)cc2-c2ccc(P(C)(C)=O)cc2OC)s1` [Example 303, 4-(4-(dimethylphosphoryl)-2-methoxyphenyl)-N-(5-methoxy-1,3,4-thiadiazol-2-yl)-6-methylnicotinamide], for which the IC50 fell in the range of 1000 to 10000 nM.
Same read-out and setting: as for `COc1cnc(C)c(F)c1-c1cc(C)ncc1C(=O)Nc1nnc(O[C@H]2CC[C@H](CO)CC2)s1` [Example 314, 3′-fluoro-N-(5-(((1r,4r)-4-(hydroxymethyl)cyclohexyl)oxy)-1,3,4-thiadiazol-2-yl)-5′-methoxy-2′,6-dimethyl-[4,4′-bipyridine]-3-carboxamide], the figure is not above 200 nM.
Regarding `COc1cc(C(=O)Nc2nnc(OC)s2)c(-c2cc(Cl)ncc2OC)cn1` [Example 242, 2′-chloro-5′,6-dimethoxy-N-(5-methoxy-1,3,4-thiadiazol-2-yl)-[3,4′-bipyridine]-4-carboxamide], the IC50 is not above 200 nM.
The same measure, in the same setting: as for `COc1nnc(NC(=O)c2cnc(C)cc2-c2cccc(C)c2)s1` [Example 361, N-(5-methoxy-1,3,4-thiadiazol-2-yl)-6-methyl-4-(3-methylphenyl) pyridine-3-carboxamide], the figure is 500 to 1000 nM; as for `COc1nnc(NC(=O)c2cnc(C)cc2-c2cc(C)nc(C)c2)s1` [Example 469, N-(5-methoxy-1,3,4-thiadiazol-2-yl)-2′,6,6′-trimethyl-[4,4′-bipyridine]-3-carboxamide], 200 to 500 nM; as for `COc1nnc(NC(=O)c2cnc(C)cc2-c2cscc2C#N)s1` [Example 442, 4-(4-cyanothiophen-3-yl)-N-(5-methoxy-1,3,4-thiadiazol-2-yl)-6-methylpyridine-3-carboxamide], 1000 to 10000 nM.
Same read-out and setting: with `COc1nnc(NC(=O)c2cnc(C)cc2-c2ccc3ncncc3c2)s1` [Example 470, N-(5-methoxy-1,3,4-thiadiazol-2-yl)-6-methyl-4-(quinazolin-6-yl)pyridine-3-carboxamide] the figure was 1000 to 10000 nM; with `COc1nnc(NC(=O)c2cnc(C)cc2-c2cc(Cl)cc3c2OCCN3)s1` [Example 320, 4-(6-chloro-3,4-dihydro-2H-benzo[b][1,4]oxazin-8-yl)-N-(5-methoxy-1,3,4-thiadiazol-2-yl)-6-methylnicotinamide], not above 200 nM; with `COc1nnc(NC(=O)c2cnc(C)cc2-c2cccc(NS(C)(=O)=O)c2)s1` [Example 400, 4-(3-methanesulfonamidophenyl)-N-(5-methoxy-1,3,4-thiadiazol-2-yl)-6-methylpyridine-3-carboxamide], 1000 to 10000 nM.
Compound `COc1nnc(NC(=O)c2cnc(C)cc2-c2cnc(N)c(C#N)c2)s1` [Example 362, 6-amino-5-cyano-N-(5-methoxy-1,3,4-thiadiazol-2-yl)-6′-methyl-[3,4′-bipyridine]-3′-carboxamide] gave an IC50 of 1000 to 10000 nM.
Still for that read-out and setting: as for `COc1nnc(NC(=O)c2cnc(C)cc2-c2ccc3c(c2)OC(F)(F)O3)s1` [Example 349, 4-(2,2-difluoro-2H-1,3-benzodioxol-5-yl)-N-(5-methoxy-1,3,4-thiadiazol-2-yl)-6-methylpyridine-3-carboxamide], the figure is 1000 to 10000 nM; as for `COc1nnc(NC(=O)c2cnc(C)cc2-c2ccc(CN(C)C)nc2)s1` [Example 474, 6-((dimethylamino)methyl)-N-(5-methoxy-1,3,4-thiadiazol-2-yl)-6′-methyl-[3,4′-bipyridine]-3′-carboxamide], 1000 to 10000 nM.
Still for that read-out and setting: with `COc1nnc(NC(=O)c2cnc(C)cc2-c2cccc(N3CCCCC3)c2)s1` [Example 478, N-(5-methoxy-1,3,4-thiadiazol-2-yl)-6-methyl-4-[3-(piperidin-1-yl)phenyl]pyridine-3-carboxamide] the figure was 1000 to 10000 nM.
As to `COc1cnc(C)cc1-c1cc(C)ncc1C(=O)Nc1nnc(OC(CC(N)=O)C(F)(F)F)s1` (centres unmarked) [Example 324, N-(5-((4-amino-1,1,1-trifluoro-4-oxobutan-2-yl)oxy)-1,3,4-thiadiazol-2-yl)-5′-methoxy-2′,6-dimethyl-[4,4′-bipyridine]-3-carboxamide], the IC50 is not above 200 nM.

Staying with this assay, now noted: Table 4; Pol theta (1-899) 5 nM, ATP, dT50 ssDNA.
As to `COc1cnc(Cl)cc1-c1cc(C)ncc1C(=O)Nc1nnc(O)s1` [Example 31, 2′-chloro-N-(5-hydroxy-1,3,4-thiadiazol-2-yl)-5′-methoxy-6-methyl-(4,4′-bipyridine)-3-carboxamide], the half-inhibitory concentration (IC50) was 200 to 500 nM.
In turn, `COc1nnc(NC(=O)c2cnc(C)cc2-c2cc(Br)ncc2OC)s1` [Example 63, 2′-bromo-5′-methoxy-N-(5-methoxy-1,3,4-thiadiazol-2-yl)-6-methyl-(4,4′-bipyridine)-3-carboxamide] registered an IC50 not above 200 nM.
In turn, `COc1cnc(Cl)cc1-c1cc(C)ncc1C(=O)Nc1nnc(OCC(F)F)s1` [Example 18, 2′-chloro-N-(5-(2,2-difluoroethoxy)-1,3,4-thiadiazol-2-yl)-5′-methoxy-6-methyl-(4,4′-bipyridine)-3-carboxamide] returned an IC50 not above 200 nM.
In turn, `COc1nnc(NC(=O)c2cnc(C)cc2-c2cc(C)ncc2C)s1` [Example 56, N-(5-methoxy-1,3,4-thiadiazol-2-yl)-2′,5′,6-trimethyl-(4,4′-bipyridine)-3-carboxamide] displayed an IC50 of 200 to 500 nM.
For the compound `COc1nnc(NC(=O)c2cnc(C)cc2-c2c(F)cccc2OC)s1` [Example 2, 4-(2-fluoro-6-methoxyphenyl)-N-(5-methoxy-1,3,4-thiadiazol-2-yl)-6-methylpyridine-3-carboxamide], the IC50 is not above 200 nM.
The compound `COc1nnc(NC(=O)c2cnc(C)cc2-c2c(Cl)cccc2Cl)s1` [Example 34, 4-(2,6-dichlorophenyl)-N-(5-methoxy-1,3,4-thiadiazol-2-yl)-6-methylnicotinamide] showed an IC50 of 500 to 1000 nM.
In the case of `COCCOc1nnc(NC(=O)c2ccncc2-c2ccccc2OC)s1` [Example 78], the IC50 lay in the range of 500 to 1000 nM.

Still in this assay, the particulars now being: Table 5; Pol theta (1-899) 5 nM, ATP, dT50 ssDNA.
With `COc1cnc(Br)cc1-c1cc(C)ncc1C(=O)Nc1nnc(O[C@@H]2CCOC2)s1` [Example 84], the half-maximal inhibitory concentration (IC50) was not above 200 nM.
For `COc1cnc(Cl)c(F)c1-c1cc(C)ncc1C(=O)Nc1nnc(O[C@H]2CC[C@@H](O)C2)s1` (racemic) [Example 170, rac-2′-chloro-3′-fluoro-N-(5-(((1R,3S)-3-hydroxycyclopentyl)oxy)-1,3,4-thiadiazol-2-yl)-5′-methoxy-6-methyl-(4,4′-bipyridine)-3-carboxamide], the 50% inhibitory concentration (IC50) was not above 200 nM.
On the same count and under the same terms, as for `COc1cnc(Cl)cc1-c1cc(C)ncc1C(=O)Nc1nnc(O[C@H]2C[C@H](O)C2(C)C)s1` (single isomer, unassigned) [Example 184, 2′-chloro-N-(5-((1r,3r)-3-hydroxy-2,2-dimethylcyclobutoxy)-1,3,4-thiadiazol-2-yl)-5′-methoxy-6-methyl-(4,4′-bipyridine)-3-carboxamide], the figure is not above 200 nM.
Still for that read-out and setting: as for `COc1nnc(NC(=O)c2c[nH]nc2-c2cc(Cl)ncc2OC)s1` [Example 109, 3-(2-chloro-5-methoxypyridin-4-yl)-N-(5-methoxy-1,3,4-thiadiazol-2-yl)-1H-pyrazole-4-carboxamide], the figure is 1000 to 10000 nM; as for `COc1cnc(Cl)cc1-c1cc(C)ncc1C(=O)Nc1nnc(O[C@H]2CC[C@@H]([C@@H](C)O)CC2)s1` (single isomer, unassigned) [Example 212], not above 200 nM.
The same measure, in the same setting: as for `Cc1cc(-c2cc(Cl)ncc2OC(F)F)c(C(=O)Nc2nnc(O[C@H]3CC[C@H](O)CC3)s2)cn1` [Example 203, 2′-chloro-5′-(difluoromethoxy)-N-(5-(((1r,4r)-4-hydroxycyclohexyl)oxy)-1,3,4-thiadiazol-2-yl)-6-methyl-(4,4′-bipyridine)-3-carboxamide], the figure is not above 200 nM.
The compound `COc1cnc(Cl)cc1-c1cc(C)ncc1C(=O)Nc1nnc(O[C@H]2CC[C@H](OC)C2)s1` (racemic) [Example 149, rac-2′-chloro-5′-methoxy-N-(5-(((1R,3R)-3-methoxycyclopentyl)oxy)-1,3,4-thiadiazol-2-yl)-6-methyl-(4,4′-bipyridine)-3-carboxamide] displayed an IC50 not above 200 nM.
Compound `COc1cnc(Cl)c(F)c1-c1cc(C)ncc1C(=O)Nc1nnc(O[C@H]2CC[C@H](OC)CC2)s1` (single isomer, unassigned) [Example 153, 2′-chloro-3′-fluoro-5′-methoxy-N-(5-(((1r,4r)-4-methoxycyclohexyl)oxy)-1,3,4-thiadiazol-2-yl)-6-methyl-(4,4′-bipyridine)-3-carboxamide] gave a concentration for half-maximal inhibition (IC50) not above 200 nM.
Turning to `COc1cnc(Cl)cc1-c1cc(C)ncc1C(=O)Nc1nnc(O[C@@H]2CCC[C@@H](OC)C2)s1` (single isomer, unassigned) [Example 148], the IC50 was not above 200 nM.
On the same count and under the same terms, with `COc1cnc(Cl)cc1-c1cc(C)ncc1C(=O)Nc1nnc(O[C@@H]2COC(C)(C)C2)s1` (single isomer, unassigned) [Example 130] the figure was not above 200 nM.
As to `COc1cnc(Cl)cc1-c1cc(C)ncc1C(=O)Nc1nnc(O[C@@H]2CO[C@H](C)C2)s1` (single isomer, unassigned) [Example 189], the IC50 is not above 200 nM.
Same read-out and setting: with `COc1cnc(Cl)cc1-c1cc(C)ncc1C(=O)Nc1nnc(O[C@@H]2CC[C@H]2O)s1` (single isomer, unassigned) [Example 114] the figure was not above 200 nM.
`COc1cnc(Cl)cc1-c1cc(C)ncc1C(=O)Nc1nnc(O[C@H]2CC[C@H](OC)CC2)s1` (single isomer, unassigned) [Example 125, 2′-chloro-5′-methoxy-N-(5-(((1r,4r)-4-methoxycyclohexyl)oxy)-1,3,4-thiadiazol-2-yl)-6-methyl-(4,4′-bipyridine)-3-carboxamide] came in with an IC50 not above 200 nM.

The assay is the same for the next values; noted with them: Table 5; values given as bound; Pol theta (1-899) 5 nM, ATP, dT50 ssDNA.
`COc1nnc(NC(=O)c2cn3c(C)cnc3cc2-c2c(F)cccc2OC)s1` [Example 120, 7-(2-fluoro-6-methoxyphenyl)-N-(5-methoxy-1,3,4-thiadiazol-2-yl)-3-methylimidazo(1,2-a)pyridine-6-carboxamide]: the IC50 is more than 10000 nM.
